# Laboratory results: patent US20010007862A1, “METHOD OF SELECTING A SALT FOR MAKING AN INCLUSION COMPLEX” (priority 1996, published 2001)
# Structures can show the parent of a compound that is named as a salt.
# Assay: Equilibrium solubility of ziprasidone salts in 40% (w/v) aqueous SBECD
# Conditions: 40% SBECD
# Source text: Many different experimental protocols can be envisioned and implemented.
compound,measurement,value
"O=C1Cc2cc(CCN3CCN(c4nsc5ccccc45)CC3)c(Cl)cc2N1 [mesylate, Ziprasidone Mesylate]",Rank of solubility among salt candidates and cyclodextrin solutions tested,highest solubility
